Measurements reported in the NIST ThermoML archive (doi:10.1016/j.jct.2018.05.004).
Numbers after ± are expanded uncertainties.

Assay: mn = molality of the nth substance listed, in mol/kg
Conditions: 100 kPa, Liquid; for speed of sound: Frequency=3 MHz, Single path-length method; for mass density: Vibrating tube method

OC[C@H]1O[C@@](CO)(O[C@H]2O[C@H](CO)[C@@H](O)[C@H](O)[C@H]2O)[C@@H](O)[C@@H]1O [D-sucrose] + O
speed of sound (288.15 K, m1 = 0.1002): 1476.3 ± 16 m/s
speed of sound (288.15 K, m1 = 0.2007): 1486.2 ± 16 m/s
speed of sound (288.15 K, m1 = 0.3011): 1496 ± 16 m/s
speed of sound (288.15 K, m1 = 0.4034): 1506 ± 16 m/s
speed of sound (288.15 K, m1 = 0.4996): 1515.3 ± 16 m/s
speed of sound (288.15 K, m1 = 0.6018): 1525.2 ± 16 m/s
speed of sound (288.15 K, m1 = 0.7022): 1534.9 ± 16 m/s
speed of sound (288.15 K, m1 = 0.7978): 1543.9 ± 16 m/s
speed of sound (288.15 K, m1 = 0.8955): 1552.9 ± 16 m/s
speed of sound (288.15 K, m1 = 0.9969): 1562.2 ± 16 m/s
mass density (288.15 K, m1 = 0.1002): 1012.01 ± 8 kg/m3
mass density (288.15 K, m1 = 0.2007): 1024.37 ± 8 kg/m3
mass density (288.15 K, m1 = 0.3011): 1036.19 ± 8 kg/m3
mass density (288.15 K, m1 = 0.4034): 1047.72 ± 8.1 kg/m3
mass density (288.15 K, m1 = 0.4996): 1058.12 ± 8.1 kg/m3
mass density (288.15 K, m1 = 0.6018): 1068.73 ± 8.1 kg/m3
mass density (288.15 K, m1 = 0.7022): 1078.71 ± 8.1 kg/m3
mass density (288.15 K, m1 = 0.7978): 1087.87 ± 8.1 kg/m3
mass density (288.15 K, m1 = 0.8955): 1096.86 ± 8.2 kg/m3
mass density (288.15 K, m1 = 0.9969): 1105.83 ± 8.2 kg/m3
speed of sound (298.15 K, m1 = 0.1002): 1506 ± 16 m/s
speed of sound (298.15 K, m1 = 0.2007): 1515 ± 16 m/s
speed of sound (298.15 K, m1 = 0.3011): 1524 ± 16 m/s
speed of sound (298.15 K, m1 = 0.4034): 1533.2 ± 16 m/s
speed of sound (298.15 K, m1 = 0.4996): 1541.7 ± 16 m/s
speed of sound (298.15 K, m1 = 0.6018): 1550.6 ± 16 m/s
speed of sound (298.15 K, m1 = 0.7022): 1559.3 ± 16 m/s
speed of sound (298.15 K, m1 = 0.7978): 1567.4 ± 16 m/s
speed of sound (298.15 K, m1 = 0.8955): 1575.6 ± 16 m/s
speed of sound (298.15 K, m1 = 0.9969): 1583.8 ± 16 m/s
mass density (298.15 K, m1 = 0.1002): 1009.81 ± 8 kg/m3
mass density (298.15 K, m1 = 0.2007): 1022.04 ± 8 kg/m3
mass density (298.15 K, m1 = 0.3011): 1033.73 ± 8 kg/m3
mass density (298.15 K, m1 = 0.4034): 1045.13 ± 8 kg/m3
mass density (298.15 K, m1 = 0.4996): 1055.43 ± 8.1 kg/m3
mass density (298.15 K, m1 = 0.6018): 1065.92 ± 8.1 kg/m3
mass density (298.15 K, m1 = 0.7022): 1075.81 ± 8.1 kg/m3
mass density (298.15 K, m1 = 0.7978): 1084.86 ± 8.1 kg/m3
mass density (298.15 K, m1 = 0.8955): 1093.77 ± 8.2 kg/m3
mass density (298.15 K, m1 = 0.9969): 1102.65 ± 8.2 kg/m3
speed of sound (308.15 K, m1 = 0.1002): 1528.2 ± 16 m/s
speed of sound (308.15 K, m1 = 0.2007): 1536.5 ± 16 m/s
speed of sound (308.15 K, m1 = 0.3011): 1544.7 ± 16 m/s
speed of sound (308.15 K, m1 = 0.4034): 1553.1 ± 16 m/s
speed of sound (308.15 K, m1 = 0.4996): 1561 ± 16 m/s
speed of sound (308.15 K, m1 = 0.6018): 1569.3 ± 16 m/s
speed of sound (308.15 K, m1 = 0.7022): 1577.2 ± 16 m/s
speed of sound (308.15 K, m1 = 0.7978): 1584.8 ± 16 m/s
speed of sound (308.15 K, m1 = 0.8955): 1592.3 ± 16 m/s
speed of sound (308.15 K, m1 = 0.9969): 1600.1 ± 16 m/s
mass density (308.15 K, m1 = 0.1002): 1006.68 ± 8 kg/m3
mass density (308.15 K, m1 = 0.2007): 1018.8 ± 8 kg/m3
mass density (308.15 K, m1 = 0.3011): 1030.39 ± 8 kg/m3
mass density (308.15 K, m1 = 0.4034): 1041.69 ± 8 kg/m3
mass density (308.15 K, m1 = 0.4996): 1051.89 ± 8.1 kg/m3
mass density (308.15 K, m1 = 0.6018): 1062.29 ± 8.1 kg/m3
mass density (308.15 K, m1 = 0.7022): 1072.09 ± 8.1 kg/m3
mass density (308.15 K, m1 = 0.7978): 1081.07 ± 8.1 kg/m3
mass density (308.15 K, m1 = 0.8955): 1089.9 ± 8.2 kg/m3
mass density (308.15 K, m1 = 0.9969): 1098.71 ± 8.2 kg/m3
speed of sound (318.15 K, m1 = 0.1002): 1544 ± 16 m/s
speed of sound (318.15 K, m1 = 0.2007): 1552.6 ± 16 m/s
speed of sound (318.15 K, m1 = 0.3011): 1560.1 ± 16 m/s
speed of sound (318.15 K, m1 = 0.4034): 1567.7 ± 16 m/s
speed of sound (318.15 K, m1 = 0.4996): 1576 ± 16 m/s
speed of sound (318.15 K, m1 = 0.6018): 1584.2 ± 16 m/s
speed of sound (318.15 K, m1 = 0.7022): 1592 ± 16 m/s
speed of sound (318.15 K, m1 = 0.7978): 1599.6 ± 16 m/s
speed of sound (318.15 K, m1 = 0.8955): 1606.7 ± 16 m/s
speed of sound (318.15 K, m1 = 0.9969): 1614.4 ± 16 m/s
mass density (318.15 K, m1 = 0.1002): 1002.77 ± 8 kg/m3
mass density (318.15 K, m1 = 0.2007): 1014.82 ± 8 kg/m3
mass density (318.15 K, m1 = 0.3011): 1026.34 ± 8 kg/m3
mass density (318.15 K, m1 = 0.4034): 1037.58 ± 8 kg/m3
mass density (318.15 K, m1 = 0.4996): 1047.73 ± 8.1 kg/m3
mass density (318.15 K, m1 = 0.6018): 1058.07 ± 8.1 kg/m3
mass density (318.15 K, m1 = 0.7022): 1067.82 ± 8.1 kg/m3
mass density (318.15 K, m1 = 0.7978): 1076.72 ± 8.1 kg/m3
mass density (318.15 K, m1 = 0.8955): 1085.49 ± 8.2 kg/m3
mass density (318.15 K, m1 = 0.9969): 1094.23 ± 8.2 kg/m3

O=C([O-])CC(O)(CC(=O)[O-])C(=O)[O-].[NH4+].[NH4+].[NH4+] [ammonium 2-hydroxypropane-1,2,3-tricarboxylate] + O
speed of sound (288.15 K, m1 = 0.2): 1503.1 ± 16 m/s
speed of sound (288.15 K, m1 = 0.4): 1540.4 ± 16 m/s
speed of sound (288.15 K, m1 = 0.6): 1578.7 ± 16 m/s
mass density (288.15 K, m1 = 0.2): 1021.37 ± 8 kg/m3
mass density (288.15 K, m1 = 0.4): 1043.45 ± 8 kg/m3
mass density (288.15 K, m1 = 0.6): 1063.76 ± 8.1 kg/m3
speed of sound (298.15 K, m1 = 0.2): 1532 ± 16 m/s
speed of sound (298.15 K, m1 = 0.4): 1567.3 ± 16 m/s
speed of sound (298.15 K, m1 = 0.6): 1603.6 ± 16 m/s
mass density (298.15 K, m1 = 0.2): 1019 ± 8 kg/m3
mass density (298.15 K, m1 = 0.4): 1040.15 ± 8 kg/m3
mass density (298.15 K, m1 = 0.6): 1060.41 ± 8.1 kg/m3
speed of sound (308.15 K, m1 = 0.2): 1553.5 ± 16 m/s
speed of sound (308.15 K, m1 = 0.4): 1587.8 ± 16 m/s
speed of sound (308.15 K, m1 = 0.6): 1621.9 ± 16 m/s
mass density (308.15 K, m1 = 0.2): 1015.71 ± 8 kg/m3
mass density (308.15 K, m1 = 0.4): 1037.34 ± 8 kg/m3
mass density (308.15 K, m1 = 0.6): 1057.21 ± 8.1 kg/m3
speed of sound (318.15 K, m1 = 0.2): 1569 ± 16 m/s
speed of sound (318.15 K, m1 = 0.4): 1602.3 ± 16 m/s
speed of sound (318.15 K, m1 = 0.6): 1635.4 ± 16 m/s
mass density (318.15 K, m1 = 0.2): 1011.75 ± 8 kg/m3
mass density (318.15 K, m1 = 0.4): 1033.31 ± 8 kg/m3
mass density (318.15 K, m1 = 0.6): 1052.93 ± 8.1 kg/m3

O=C([O-])CC(O)(CC(=O)[O-])C(=O)[O-].[Li+].[Li+].[Li+] [trilithium citrate] + O
speed of sound (288.15 K, m1 = 0.2): 1509.2 ± 16 m/s
speed of sound (288.15 K, m1 = 0.4): 1548 ± 16 m/s
speed of sound (288.15 K, m1 = 0.6): 1589.2 ± 16 m/s
mass density (288.15 K, m1 = 0.2): 1027.21 ± 8 kg/m3
mass density (288.15 K, m1 = 0.4): 1052.75 ± 8.1 kg/m3
mass density (288.15 K, m1 = 0.6): 1078.28 ± 8.1 kg/m3
speed of sound (298.15 K, m1 = 0.2): 1535.8 ± 16 m/s
speed of sound (298.15 K, m1 = 0.4): 1572.6 ± 16 m/s
speed of sound (298.15 K, m1 = 0.6): 1610.5 ± 16 m/s
mass density (298.15 K, m1 = 0.2): 1025.32 ± 8 kg/m3
mass density (298.15 K, m1 = 0.4): 1050.41 ± 8.1 kg/m3
mass density (298.15 K, m1 = 0.6): 1075.38 ± 8.1 kg/m3
speed of sound (308.15 K, m1 = 0.2): 1556 ± 16 m/s
speed of sound (308.15 K, m1 = 0.4): 1590.3 ± 16 m/s
speed of sound (308.15 K, m1 = 0.6): 1625.9 ± 16 m/s
mass density (308.15 K, m1 = 0.2): 1021.67 ± 8 kg/m3
mass density (308.15 K, m1 = 0.4): 1046.92 ± 8.1 kg/m3
mass density (308.15 K, m1 = 0.6): 1071.84 ± 8.1 kg/m3
speed of sound (318.15 K, m1 = 0.2): 1570.2 ± 16 m/s
speed of sound (318.15 K, m1 = 0.4): 1602.4 ± 16 m/s
speed of sound (318.15 K, m1 = 0.6): 1635.7 ± 16 m/s
mass density (318.15 K, m1 = 0.2): 1017.79 ± 8 kg/m3
mass density (318.15 K, m1 = 0.4): 1042.96 ± 8.1 kg/m3
mass density (318.15 K, m1 = 0.6): 1068 ± 8.1 kg/m3
